From patent US20220265817A1, “THERAPEUTIC COMPOSITIONS AND METHODS FOR TREATING HEPATITIS B” (priority 2017, published 2022)
pEC50: −log10 of the molar value.

Tested on: HBV rcDNA in HepDE19 cells
Test: HepDE19 cell culture system, rcDNA quantitation using bDNA assay, MacSynergy II
Format: cell-based, human hepatoma cell line
Details: for AVERAGE % INHIBITION (rcDNA): 4 replicates, SIRNA-NP ng/mL by row: r8 25, r9 8.333, r10 2.778, r11 0.926, r12 0.309, r13 0; for ADDITIVE INHIBITION: expected from additive interaction, SIRNA-NP ng/mL by row: r30 25, r31 8.333, r32 2.778, r33 0.926, r34 0.309, r35 0
Experimental: In vitro combination studies were conducted using the method of Prichard and Shipman (Prichard M N, and Shipman C Jr., Antiviral Research, 1990, 14 (4-5), 181-205; and Prichard M N, et. al., MacSynergy II). HepDE19 cell culture system is a HepG2 (human hepatocarcinoma) derived cell line that supports HBV DNA replication and cccDNA formation in a tetracycline (Tet)-regulated manner and produces HBV rcDNA and a detectable reporter molecule dependent on the production and maintenance of cccDNA (Guo et al 2007. J. Virol 81:12472-12484). HepDE19 (50,000 cells/well) were plated in 96 well collagen-coated tissue-culture treated microtiter plates in DMEM/F12 medium supplemented with 10% fetal bovine serum, 1% penicillin-streptomycin and 1 μg/ml tetracycline and incubated in a humidified incubator at 37° C. and 5% CO2 overnight. Next day, the cells were switched to fresh medium without tetracycline and incubated for 4 hrs at 37° C. and 5% CO2. […] The two inhibitors were tested both singly as well as in combinations in a checkerboard fashion such that each concentration of inhibitor A was combined with each concentration of inhibitor B to determine their combination effects on inhibition of rcDNA production. Following a 7 day-incubation of cells with compound combinations, the level of rcDNA present in the inhibitor-treated wells was measured using a Quantigene 2.0 bDNA assay kit (Affymetrix, Santa Clara, Calif.) with HBV specific custom probe set and manufacturers instructions. […] The RLU data from the single compound treated cells were analyzed using XL-Fit module in Microsoft Excel to determine EC50 values using a 4-parameter curve fitting algorithm. Concurrently, the effect of compounds on cell viability was assessed using replicate plates, plated at a density of 5,000 cells/well and incubated for 4 days, to determine the ATP content as a measure of cell viability using the cell-titer glo reagent (CTG; Promega Corporation, Madison, Wis.) as per manufacturer's instructions.
In vitro combination studies were conducted using the method of Prichard and Shipman (Prichard M N, Shipman C, Jr., Antiviral Res, 14, 181-205 (1990)). The HepDE19 cell line was developed as described in Guo et al. (Guo et al., J Virol, 81, 12472-12484 (2007)). It is a human hepatoma cell line stably transfected with the HBV genome, and which can express HBV pregenomic RNA and support HBV rcDNA (relaxed circular DNA) synthesis in a tetracycline-regulated manner. HepDE19 cells were plated in 96 well tissue-culture treated microtiter plates in DMEM/F12 medium supplemented with 10% fetal bovine serum+1% penicillin-streptomycin without tetracycline and incubated in a humidified incubator at 37° C. and 5% CO2 overnight. […] The two inhibitors were tested both singly as well as in combinations in a checkerboard fashion such that each concentration of inhibitor A was combined with each concentration of inhibitor B to determine their combination effects on inhibition of rcDNA production. Following a 48 hour-incubation, the level of rcDNA present in the inhibitor-treated wells was measured using a bDNA assay (Affymetrix) with HBV specific custom probe set and manufacturers instructions. […] Concurrently, the effect of inhibitor combinations on cell viability was assessed using replicate plates that were used to determine the ATP content as a measure of cell viability using the Cell-TiterGlo reagent (Promega) as per manufacturer's instructions.
In vitro combination studies were conducted using the method of Prichard and Shipman (1990) (Prichard M N, Shipman C, Jr. 1990. A three-dimensional model to analyze drug-drug interactions. Antiviral Res 14:181-205 AND Prichard M N. 1992. MacSynergy II, University of Michigan).

## C=C1[C@H](CO)[C@@H](O)C[C@@H]1n1cnc2c(=O)[nH]c(N)nc21 [Entecavir]
ETV 0.016 nM
  AVERAGE % INHIBITION (rcDNA): −43.72%
ETV 0.031 nM
  AVERAGE % INHIBITION (rcDNA): −50.07%
ETV 0.063 nM
  AVERAGE % INHIBITION (rcDNA): −30.26%
ETV 0.125 nM
  AVERAGE % INHIBITION (rcDNA): −23.47%
  ADDITIVE INHIBITION: −23.47%
ETV 0.250 nM
  AVERAGE % INHIBITION (rcDNA): −21.25%
ETV 1.000 nM
  AVERAGE % INHIBITION (rcDNA): 41.71%
ETV 2.000 nM
  AVERAGE % INHIBITION (rcDNA): 58.35%
ETV 4.000 nM
  AVERAGE % INHIBITION (rcDNA): 69.99%
Hepatitis B virus, HepDE19, rcDNA by bDNA assay, ETV, read-out: Inhibitor B EC50
  pEC50: 8.75
ETV 0.015625 nM
  ADDITIVE INHIBITION: −43.72%
ETV 0.03125 nM
  ADDITIVE INHIBITION: −50.07%
ETV 0.0625 nM
  ADDITIVE INHIBITION: −30.26%
ETV 0.25 nM
  ADDITIVE INHIBITION: −21.25%
ETV 1 nM
  ADDITIVE INHIBITION: 41.71%
ETV 2 nM
  ADDITIVE INHIBITION: 58.35%
ETV 4 nM
  ADDITIVE INHIBITION: 69.99%
